The values below come from ChEMBL document CHEMBL6182848, “Phenyl-benzyl-ureas with pyridazinone motif: Potent soluble epoxide hydrolase inhibitors with enhanced pharmacokinetics and efficacy in a paclitaxel-induced neuropathic pain model” (Eur J Med Chem, 2025).

A short description of series [1]: Metabolic stability in human liver microsomes assessed as intrinsic clearance measured up to 60 mins in presence of NADPH by LC-MS/MS analysis. In kind it is ADME, Microsome. The following applies: 1 h. In general terms: Liver microsomes are a subcellular fraction often used to study metabolism.
Series [2] can be described thus: Metabolic stability in human liver microsomes assessed as half life measured up to 60 mins in presence of NADPH by LC-MS/MS analysis. In kind it is ADME, Microsome.
A short description of series [3]: Metabolic stability in mouse liver microsomes assessed as half life measured up to 60 mins in presence of NADPH by LC-MS/MS analysis. It is filed as ADME, Microsome.
A short description of series [4]: Half life in male CD-1 mouse at 10 mg/kg, po measured up to 24 hrs by LC-MS/MS analysis. It is filed as ADME, organism-based. The settings on record: in vivo.
Series [5] relates to Mus musculus. Kind of series: Analgesic activity in PTX-induced neuropathic pain male C57BL/6 mouse model assessed as improvement in mechanical paw withdrawal threshold at 30 mg/kg, po measured up to 4 hrs by Von Frey test. It is filed as functional, organism-based.
The nature of series [6]: Volume of distribution at steady state in male CD-1 mouse at 2 mg/kg, iv measured up to 24 hrs by LC-MS/MS analysis. It is filed as ADME, organism-based. The settings on record: in vivo, read-out: Vdss.
Series [7] concerns Mus musculus. Kind of series: Analgesic activity in PTX-induced neuropathic pain male C57BL/6 mouse model assessed as improvement in mechanical paw withdrawal threshold at 10 mg/kg, po measured up to 4 hrs by Von Frey test. It is filed as functional, organism-based.
Series [8] in a line: MRT in male CD-1 mouse at 10 mg/kg, po measured up to 24 hrs by LC-MS/MS analysis. It is filed as ADME, organism-based. The settings on record: in vivo.
Series [9] is described as follows: Cytotoxicity against human PBMC at 10 uM incubated for 24 hrs by MTT assay. In kind it is toxicity, cell-based. Background: Tetrazolium assays rely on reduction of a dye to a coloured formazan, in cell work by metabolically active cells.
The nature of series [10]: AUC (0 to infinity) in male CD-1 mouse at 10 mg/kg, po measured up to 24 hrs by LC-MS/MS analysis. In kind it is ADME, organism-based. The settings on record: in vivo.
Series [11] in a line: Half life in male CD-1 mouse at 2 mg/kg, iv measured up to 24 hrs by LC-MS/MS analysis. It is filed as ADME, organism-based. The settings on record: in vivo.
The nature of series [12]: C0 in male CD-1 mouse at 2 mg/kg, iv measured up to 24 hrs by LC-MS/MS analysis. It is filed as ADME, organism-based. The settings on record: in vivo.
A short description of series [13]: Clearance in male CD-1 mouse at 2 mg/kg, iv measured up to 24 hrs by LC-MS/MS analysis. It is filed as ADME, organism-based. The following applies: in vivo.
Series [14] concerns Mus musculus. In words: Analgesic activity in PTX-induced neuropathic pain male C57BL/6 mouse model assessed as improvement in mechanical paw withdrawal threshold at 10 to 30 mg/kg, po measured for 2 to 4 hrs by Von Frey test. It is filed as functional, organism-based. The settings on record: dose 10-30 mg/kg, time 2-4 hrs.
Series [15] in a line: Oral bioavailability in male CD-1 mouse at 10 mg/kg measured up to 24 hrs by LC-MS/MS analysis. It is filed as ADME, organism-based. The following applies: in vivo.
The test system of series [16] is PBMC. In words: Anti-inflammatory activity in LPS-induced human PBMC assessed as reduction in IL-6 level pre-incubated with compound for 30 mins followed by LPS stimulation and measured after 6 hrs by ELISA. In kind it is functional, cell-based. The following applies: dose 1-1000 nM. A general note: In an ELISA, binding on a coated surface is turned into a signal by an enzyme label.

Series [17] can be described thus: Permeability coefficient of compound in PBS at pH 7.4 at 10 uM incubated for 16 hrs PAMPA-BBB assay.
Series [18] in a line: Cmax in male CD-1 mouse at 10 mg/kg, po measured up to 24 hrs by LC-MS/MS analysis. It is filed as ADME, organism-based. The following applies: in vivo.
A short description of series [19]: MRT in male CD-1 mouse at 2 mg/kg, iv measured up to 24 hrs by LC-MS/MS analysis. It is filed as ADME, organism-based. The settings on record: in vivo.
In series [20] the test system is PBMC. Kind of series: Anti-inflammatory activity in LPS-induced human PBMC assessed as reduction in TNF-alpha level pre-incubated with compound for 30 mins followed by LPS stimulation and measured after 6 hrs by ELISA. The settings on record: dose 1-1000 nM, time 390.0 min. It is filed as functional, cell-based.
A short description of series [21]: AUC (0 to infinity) in male CD-1 mouse at 2 mg/kg, iv measured up to 24 hrs by LC-MS/MS analysis. It is filed as ADME, organism-based. The following applies: in vivo.
In series [22] the test system is Mus musculus. In words: Analgesic activity in PTX-induced neuropathic pain male C57BL/6 mouse model assessed as improvement in mechanical paw withdrawal threshold at 30 mg/kg, po administered for 14 days by Von Frey test. The settings on record: time 14.0 day. It is filed as functional, organism-based.
The subject of series [23] is Mus musculus. Kind of series: Analgesic activity in PTX-induced neuropathic pain male C57BL/6 mouse model assessed as improvement in mechanical paw withdrawal threshold at 60 mg/kg, po measured up to 4 hrs by Von Frey test. It is filed as functional, organism-based.
In series [24] the test system is Mus musculus. In words: Analgesic activity in PTX-induced neuropathic pain male C57BL/6 mouse model assessed as improvement in mechanical paw withdrawal threshold at 60 mg/kg, po administered for 14 days by Von Frey test. It is filed as functional, organism-based. The following applies: time 14.0 day.
Series [25] in a line: Toxicity in PTX-induced neuropathic pain male C57BL/6 mouse model assessed as change in body weight at 60 mg/kg/day, po treated for 14 days. The following applies: in vivo, 336 h, time 14 day. In kind it is organism-based.
In series [26] the target is T1, Bifunctional epoxide hydrolase 2 (Homo sapiens, UniProt P34913).
T1 sequence (P34913 whole entry): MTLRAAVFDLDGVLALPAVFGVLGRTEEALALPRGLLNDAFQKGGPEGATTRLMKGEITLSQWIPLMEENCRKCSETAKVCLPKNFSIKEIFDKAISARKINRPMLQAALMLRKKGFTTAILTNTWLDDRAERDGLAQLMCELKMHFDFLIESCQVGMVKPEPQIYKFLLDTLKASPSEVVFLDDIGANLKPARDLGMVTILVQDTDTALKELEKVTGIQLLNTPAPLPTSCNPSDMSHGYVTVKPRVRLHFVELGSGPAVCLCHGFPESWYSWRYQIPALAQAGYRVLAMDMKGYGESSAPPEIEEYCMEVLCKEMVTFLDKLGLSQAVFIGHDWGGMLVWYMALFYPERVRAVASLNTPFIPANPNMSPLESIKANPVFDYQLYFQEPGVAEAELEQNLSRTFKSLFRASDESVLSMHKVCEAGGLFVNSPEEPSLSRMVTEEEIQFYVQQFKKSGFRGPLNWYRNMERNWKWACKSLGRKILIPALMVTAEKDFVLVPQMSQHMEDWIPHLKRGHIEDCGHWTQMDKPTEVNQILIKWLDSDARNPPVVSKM
In words: Inhibition of human recombinant sEH expressed in baculovirus infected Sf9 cells using PHOME as substrate preincubated for 10 mins followed by substrate addition measured after 60 mins by fluorescence based assay. It is filed as cell-based.

Calls of active or inactive are those of the source.

By half-life is commonly meant how long it takes for the measured level to halve. For `COc1ccc(CNC(=O)Nc2ccc(-c3ccc(=O)[nH]n3)cc2)c(C(F)(F)F)c1`, the CLH in [1] is under 7.5 µL/min/mg. The half-life in series [2] was over 3.08 h; in series [3], 0.393 h.
A word on the MRT: it is a mean duration of stay, worked out from the concentration-time curve. In general, AUC(0-inf) refers to total exposure, with the tail of the curve extrapolated. For orientation: clearance means a measure of how efficiently the substance is removed, as volume per time. Read a high clearance as efficient removal. A word on the bioavailability: it is dose-corrected exposure relative to a reference, in per cent. Low values mean poor availability, high ones good availability. The term Papp denotes a coefficient for how fast a substance crosses the barrier. A lower Papp goes with slow passage. Usually Cmax stands for the highest concentration seen after dosing. In the case of `O=C(NCc1ccccc1OC(F)(F)F)Nc1ccc(-c2ccc(=O)[nH]n2)cc1`, the half-life in [4] is 2.43 h; in series [11] it was 3.21 h; in series [2], over 3.08 h; in series [3], over 3.08 h. The result in the series with Mus musculus [5] and in the series with Mus musculus [14] was Active. The Vd in [6] was determined as 1.02 L/kg. Moreover, in the series on Mus musculus [7], the result was inactive. Besides, the values for the MRT in series [8] and in [19] were 5.23 h and 3.5 h, respectively. Also, the Activity result in [9] was “Non-toxic”; in the series with PBMC [16], “Dose-dependent-effect”; with PBMC [20], “Dose-dependent-effect”; in the series with Mus musculus [22], “Active; Effect Was Lower Than Gabapentin With Chronic Use, But Its Efficacy Remained Stable”. Also, the AUC(0-inf) turned out to be 29700 ng·h/mL in series [10] and 7630 ng·h/mL in series [21]. In [12], the C0 at 24 h was 4640 ng/mL. For the same molecule, the clearance in [13] was determined as 4.8 mL/min/kg. Also, in series [1], the CLH is under 7.5 µL/min/mg. Moreover, the bioavailability in [15] was 78%. This molecule came in with a Papp at 16 h, 10 µM in series [17] of 3.83 ×10⁻⁶ cm/s. Besides, the Cmax in series [18] came to 4700 ng/mL.
Take `NCC1(CC(=O)O)CCCCC1` [GABAPENTIN]: the Activity result with Mus musculus [23] is listed as “Active; Exhibited Consistent And Prolonged Effect”; with Mus musculus [24], “Active; Compound Effect Noticeably Decreased With Prolonged Administration”; in series [25], “Non-toxic”.
Usually IC50 stands for the midpoint of a concentration-inhibition curve. In the case of `O=C(NCc1ccccc1)Nc1ccc(-c2ccc(=O)[nH]n2)cc1`, in [26], the 50% inhibitory concentration (IC50) is over 100 nM.
`CN(Cc1cnc2nc(N)nc(N)c2n1)c1ccc(C(=O)N[C@@H](CCC(=O)O)C(=O)O)cc1` [METHOTREXATE]: the Kp in series [17] (16 h, 10 µM) amounted to 0.001 ×10⁻⁶ cm/s.
In the case of `O=C(NCc1cccc(C(F)(F)F)c1)Nc1ccc(-c2ccc(=O)[nH]n2)cc1`, the IC50 in series [26] was at least 100 nM.
On to `O=C(Cc1ccccc1C(F)(F)F)Nc1ccc(-c2ccc(=O)[nH]n2)cc1`, for which, in [26], the IC50 was over 100 nM.
Regarding `O=C(NCc1ccccc1C(F)(F)F)Nc1ccc(-c2ccc(=O)[nH]n2)cc1`, the CLH in series [1] was under 7.5 µL/min/mg. The half-life in series [2] and in [3] was over 3.08 h throughout.
As to `O=C(NCc1ccc(C(F)(F)F)cc1)Nc1ccc(-c2ccc(=O)[nH]n2)cc1`, the IC50 in [26] was at least 100 nM.
As to `Cn1nc(-c2ccc(NC(=O)NCc3ccccc3C(F)(F)F)cc2)ccc1=O`, the CLH in series [1] is under 7.5 µL/min/mg. Besides, the half-life in [2] and in series [3] was over 3.08 h throughout.
As for `O=C(NCc1ccccc1F)Nc1ccc(-c2ccc(=O)[nH]n2)cc1`, the IC50 in series [26] was at least 100 nM.
